The numbers were not newly measured in patent US11857677B2, “Ready to use injectable formulations of melphalan and processes for preparation thereof” (RK Pharma Solutions LLC, priority 2019, dated 2024), which cites them from elsewhere.

The structures appear in SMILES notation.

`N[C@@H](Cc1ccc(N(CCCl)CCCl)cc1)C(=O)O` [Melphalan, 4-[bis(2-chloroethyl)amino]-L-phenylalanine]: the Solubility in water result is reported as “practically insoluble”.
